Reference: patent US20250000858A1, “FGFR TYROSINE KINASE INHIBITORS FOR THE TREATMENT OF ADVANCED SOLID TUMORS” (JANSSEN PHARMACEUTICA NV, priority 2021, published 2025)

Tested on: advanced solid tumors with FGFR mutations or fusions
Assay: Phase 2 RAGNAR study (NCT04083976): tumor response per RECIST v1.1 or RANO by IRC and investigator (ORR, DOR, DCR, CBR, PFS, OS, best overall response)
Assay type: in vivo, human
Settings: for DOR of longest ongoing PR: + = censored, IA3; for Clinical Benefit Rate n(%) (95% CI) / Confirmed Objective Response Rate n(%) (95% CI) / Disease Control Rate n(%) (95% CI) / Median DOR (95% CI) / Median PFS (95% CI) / Median OS (95% CI): BPC; for Clinical Benefit Rate n(%) (95% CI) / Confirmed Objective Response Rate n(%) (95% CI) / Disease Control Rate n(%) (95% CI) / Median DOR (95% CI) / Median PFS (95% CI): IRC
From the text: Subjects ≥12 years of age with target FGFR mutations or any FGFR gene fusions were enrolled into the Broad Panel Cohort. […] A subgroup of subjects in the Broad Panel Cohort with a select panel of pre-specified FGFR markers were identified as the Core Panel Cohort (for analysis only). While the Broad Panel Cohort consists of target FGFR mutations and any fusions, the Core Panel Cohort consists of a select subset of FGFR mutations or fusions. Subjects with any other FGFR mutations that are not captured in the Broad Panel Cohort are included in the study as the Exploratory Cohort. A separate Cholangiocarcinoma Expansion Cohort enrolled subjects with target FGFR mutations or any FGFR gene fusion once the Broad Panel Cohort reached the cap of approximately 30 subjects for cholangiocarcinoma. […] Adolescent subjects enrolled in the Broad Panel Cohort (≥12 to <18 years) are considered part of the Broad Panel Cohort and the Pediatric Cohort.
(§1) Each dose was taken approximately at the same time each day, with or without food.
The Treated Population will consist of all subjects who receive at least 1 dose of study drug. The Treated Population is the primary population for efficacy and safety analyses. […] Adequate disease assessment is defined as having enough evidence to indicate that progression has or has not occurred.
Statistical Methods: For the Broad Panel Cohort, the primary endpoint was overall response rate (ORR) based on RECIST v1.1. or RANO as assessed by the IRC and was calculated with a 95% 2-sided exact confidence interval (CI). The primary endpoint was analyzed using data from the Treated Population (defined as all subjects who receive at least 1 dose of study drug) in the Broad Panel Cohort and the Core Panel Cohort. An error-spending function approach was used to split the significance level for the Broad Panel Cohort and the Core Panel Cohort.
as §1

[1] = CUP (Carcinoma of Unknown Primary), N=8
[2] = EDMTL (Endometrial Cancer), N=6
[3] = HNSCC (Squamous Cell Head and Neck Cancers), N=5
[4] = Others (tumor histologies with 1 subject treated), N=14
[5] = PANCR (Pancreatic Cancer), N=13
[6] = SALIV (Salivary Gland Cancer), N=5
[7] = nonsqNSCLC (Non-squamous NSCLC), N=7
[8] = BRST (breast cancer), N=7, efficacy analysis set, investigator assessment

Compound: COc1cc(OC)cc(N(CCNC(C)C)c2ccc3ncc(-c4cnn(C)c4)nc3c2)c1 [erdafitinib, N-(3,5-dimethoxy-phenyl)-N′-(1-methylethyl)-N-[3-(1-methyl-1H-pyrazol-4-yl)quinoxalin-6-yl]ethane-1,2-diamine]
- DOR of longest ongoing PR (1 patient with endometrial cancer): ≥ 13.7 months
- DOR of longest ongoing PR (1 patient with pancreatic cancer): ≥ 13.8 months
- clinical benefit rate (CBR: CR+PR+SD>4 months) (69/124, efficacy analysis set): 55.6%
- Objective Response Rate (BCC, N=1, efficacy analysis set, investigator assessment): 0 (NE, NE) %
- Clinical Benefit Rate n(%) (95% CI) (BRST (Breast Cancer), N=14): 6 (42.9%)
- Confirmed Objective Response Rate n(%) (95% CI) (BRST (Breast Cancer), N=14): 5 (35.7%)
- Disease Control Rate n(%) (95% CI) (BRST (Breast Cancer), N=14): 9 (64.3%)
- Median DOR (95% CI) (BRST (Breast Cancer), N=14): NE (NE, NE)
- Median PFS (95% CI) (BRST (Breast Cancer), N=14): 4.17 (1.22, NE) months
- Confirmed Objective Response Rate n(%) (95% CI) (CCA (Cholangiocarcinoma), N=31): 16 (51.6%)
- Disease Control Rate n(%) (95% CI) (CCA (Cholangiocarcinoma), N=31): 30 (96.8%)
- Median PFS (95% CI) (CCA (Cholangiocarcinoma), N=31): 8.25 (6.41, 9.72) months
- Clinical Benefit Rate n(%) (95% CI) (CRC (Colorectal Cancer), N=6): 1 (16.7%)
- Confirmed Objective Response Rate n(%) (95% CI) (CRC (Colorectal Cancer), N=6): 0 (NE, NE) %
- Disease Control Rate n(%) (95% CI) (CRC (Colorectal Cancer), N=6): 2 (33.3%)
- Median PFS (95% CI) (CRC (Colorectal Cancer), N=6): 1.15 (0.43, NE) months
- Clinical Benefit Rate n(%) (95% CI) (CRVX (Cervical Cancer), N=4): 1 (25.0%)
- Confirmed Objective Response Rate n(%) (95% CI) (CRVX (Cervical Cancer), N=4): 0 (NE, NE) %
- Disease Control Rate n(%) (95% CI) (CRVX (Cervical Cancer), N=4): 3 (75.0%)
- Median PFS (95% CI) (CRVX (Cervical Cancer), N=4): 3.52 (1.38, NE) months
- Clinical Benefit Rate n(%) (95% CI) [1]: 5 (62.5%)
- Confirmed Objective Response Rate n(%) (95% CI) [1]: 2 (25.0%)
- Disease Control Rate n(%) (95% CI) [1]: 7 (87.5%)
- Median DOR (95% CI) [1]: NE (2.66, NE)
- Median PFS (95% CI) [1]: 4.78 (2.04, NE) months
- Clinical Benefit Rate n(%) (95% CI) [2]: 3 (50.0%)
- Confirmed Objective Response Rate n(%) (95% CI) [2]: 3 (50.0%)
- Disease Control Rate n(%) (95% CI) [2]: 4 (66.7%)
- Median PFS (95% CI) [2]: 4.11 (1.31, NE) months
- Clinical Benefit Rate n(%) (95% CI) (ESOPH (Esophageal Cancer), N=6): 1 (16.7%)
- Confirmed Objective Response Rate n(%) (95% CI) (ESOPH (Esophageal Cancer), N=6): 1 (16.7%)
- Disease Control Rate n(%) (95% CI) (ESOPH (Esophageal Cancer), N=6): 2 (33.3%)
- Median PFS (95% CI) (ESOPH (Esophageal Cancer), N=6): 1.31 (0.30, NE) months
- Clinical Benefit Rate n(%) (95% CI) (GSTRC (Gastric Cancer), N=5): 0 (NE, NE) %
- Confirmed Objective Response Rate n(%) (95% CI) (GSTRC (Gastric Cancer), N=5): 0 (NE, NE) %
- Disease Control Rate n(%) (95% CI) (GSTRC (Gastric Cancer), N=5): 3 (60.0%)
- Median PFS (95% CI) (GSTRC (Gastric Cancer), N=5): 2.30 (1.22, NE) months
- Clinical Benefit Rate n(%) (95% CI) (HGG (High-grade Glioma), N=29): 10 (34.5%)
- Confirmed Objective Response Rate n(%) (95% CI) (HGG (High-grade Glioma), N=29): 3 (10.3%)
- Disease Control Rate n(%) (95% CI) (HGG (High-grade Glioma), N=29): 16 (55.2%)
- Median DOR (95% CI) (HGG (High-grade Glioma), N=29): NE (NE, NE)
- Median PFS (95% CI) (HGG (High-grade Glioma), N=29): 3.86 (2.96, 5.19) months
- Clinical Benefit Rate n(%) (95% CI) [3]: 2 (40.0%)
- Confirmed Objective Response Rate n(%) (95% CI) [3]: 2 (40.0%)
- Disease Control Rate n(%) (95% CI) [3]: 4 (80.0%)
- Median PFS (95% CI) [3]: 4.04 (0.39, NE) months
- Clinical Benefit Rate n(%) (95% CI) (LGG (Low-grade Glioma), N=6): 3 (50.0%)
- Confirmed Objective Response Rate n(%) (95% CI) (LGG (Low-grade Glioma), N=6): 2 (33.3%)
- Disease Control Rate n(%) (95% CI) (LGG (Low-grade Glioma), N=6): 4 (66.7%)
- Median DOR (95% CI) (LGG (Low-grade Glioma), N=6): NE (NE, NE)
- Median PFS (95% CI) (LGG (Low-grade Glioma), N=6): NE (2.76, NE)
- Clinical Benefit Rate n(%) (95% CI) (OVAR (Ovarian Cancer), N=4): 1 (25.0%)
- Confirmed Objective Response Rate n(%) (95% CI) (OVAR (Ovarian Cancer), N=4): 1 (25.0%)
- Disease Control Rate n(%) (95% CI) (OVAR (Ovarian Cancer), N=4): 2 (50.0%)
- Median PFS (95% CI) (OVAR (Ovarian Cancer), N=4): 6.70 (NE, NE) months
- Clinical Benefit Rate n(%) (95% CI) (Other, N=31): 18 (58.1%)
- Confirmed Objective Response Rate n(%) (95% CI) (Other, N=31): 8 (25.8%)
- Median PFS (95% CI) (Other, N=31): 5.52 (2.76, 8.61) months
- Clinical Benefit Rate n(%) (95% CI) [4]: 7 (50.0%)
- Confirmed Objective Response Rate n(%) (95% CI) [4]: 2 (14.3%)
- Disease Control Rate n(%) (95% CI) [4]: 11 (78.6%)
- Median DOR (95% CI) [4]: NE (NE, NE)
- Median PFS (95% CI) [4]: 4.39 (1.41, NE) months
- Clinical Benefit Rate n(%) (95% CI) [5]: 6 (46.2%)
- Confirmed Objective Response Rate n(%) (95% CI) [5]: 5 (38.5%)
- Disease Control Rate n(%) (95% CI) [5]: 12 (92.3%)
- Median PFS (95% CI) [5]: 4.76 (3.02, NE) months
- Clinical Benefit Rate n(%) (95% CI) (PCA (Prostate Cancer), N=2): 0 (NE, NE) %
- Confirmed Objective Response Rate n(%) (95% CI) (PCA (Prostate Cancer), N=2): 0 (NE, NE) %
- Disease Control Rate n(%) (95% CI) (PCA (Prostate Cancer), N=2): 0 (NE, NE) %
- Median PFS (95% CI) (PCA (Prostate Cancer), N=2): 1.26 (1.18, NE) months
- Clinical Benefit Rate n(%) (95% CI) [6]: 5 (100.0%)
- Confirmed Objective Response Rate n(%) (95% CI) [6]: 4 (80.0%)
- Disease Control Rate n(%) (95% CI) [6]: 5 (100.0%)
- Median PFS (95% CI) [6]: NE (8.34, NE)
- Clinical Benefit Rate n(%) (95% CI) (STS (Soft Tissue Sarcoma), N=2): 1 (50.0%)
- Confirmed Objective Response Rate n(%) (95% CI) (STS (Soft Tissue Sarcoma), N=2): 0 (NE, NE) %
- Disease Control Rate n(%) (95% CI) (STS (Soft Tissue Sarcoma), N=2): 1 (50.0%)
- Median PFS (95% CI) (STS (Soft Tissue Sarcoma), N=2): NE (3.94, NE)
- Clinical Benefit Rate n(%) (95% CI) (Total, N=178): 82 (46.1%)
- Confirmed Objective Response Rate n(%) (95% CI) (Total, N=178): 52 (29.2%)
- Disease Control Rate n(%) (95% CI) (Total, N=178): 129 (72.5%)
- Median PFS (95% CI) (Total, N=178): 4.21 (4.04, 5.52) months
- Clinical Benefit Rate n(%) (95% CI) [7]: 3 (42.9%)
- Confirmed Objective Response Rate n(%) (95% CI) [7]: 3 (42.9%)
- Disease Control Rate n(%) (95% CI) [7]: 4 (57.1%)
- Median PFS (95% CI) [7]: 4.07 (1.38, NE) months
- Clinical Benefit Rate n(%) (95% CI) (sqNSCLC (Squamous NSCLC), N=11): 3 (27.3%)
- Confirmed Objective Response Rate n(%) (95% CI) (sqNSCLC (Squamous NSCLC), N=11): 3 (27.3%)
- Disease Control Rate n(%) (95% CI) (sqNSCLC (Squamous NSCLC), N=11): 10 (90.9%)
- Median PFS (95% CI) (sqNSCLC (Squamous NSCLC), N=11): 5.03 (2.37, NE) months
- Median OS (95% CI) (BRST (Breast Cancer), N=14): 8.87 (4.86, NE) months
- Median OS (95% CI) (CCA (Cholangiocarcinoma), N=31): 14.46 (12.09, NE) months
- Median OS (95% CI) (CRC (Colorectal Cancer), N=6): 5.68 (1.22, NE) months
- Median OS (95% CI) (CRVX (Cervical Cancer), N=4): 4.40 (3.48, NE) months
- Median OS (95% CI) [1]: 11.99 (2.99, NE) months
- Median OS (95% CI) [2]: NE (1.74, NE)
- Median OS (95% CI) (ESOPH (Esophageal Cancer), N=6): 3.42 (1.28, NE) months
- Median OS (95% CI) (GSTRC (Gastric Cancer), N=5): 3.29 (2.89, NE) months
- Median OS (95% CI) (HGG (High-grade Glioma), N=29): 6.49 (3.75, 14.39) months
- Median OS (95% CI) [3]: NE (0.39, NE)
- Median OS (95% CI) (LGG (Low-grade Glioma), N=6): 10.94 (5.72, NE) months
- Median OS (95% CI) (OVAR (Ovarian Cancer), N=4): NE (NE, NE)
- Median OS (95% CI) (Other, N=31): NE (3.94, NE)
- Median OS (95% CI) [4]: NE (3.29, NE)
- Median OS (95% CI) [5]: 12.12 (7.26, NE) months
- Median OS (95% CI) (PCA (Prostate Cancer), N=2): NE (3.48, NE)
- Median OS (95% CI) [6]: NE (NE, NE)
- Median OS (95% CI) (STS (Soft Tissue Sarcoma), N=2): NE (3.94, NE)
- Median OS (95% CI) (Total, N=178): 10.94 (7.89, 14.26) months
- Median OS (95% CI) [7]: NE (2.40, NE)
- Median OS (95% CI) (sqNSCLC (Squamous NSCLC), N=11): 6.83 (2.37, NE) months
- Median DOR [8]: 6.08 (NE, NE) months
- Objective Response Rate [8]: 3 (42.9%) (9.9%, 81.6%)
